Data from patent US20090012088A1 (priority 2005, published 2009).
Read-outs that look alike come from different tables or passages of the source.

Key:
[1] = system: neuronally differentiated PC-12 cells; assay: Protection from MPP+ induced toxicity in neuronally differentiated PC-12 cells; type: cell-based; settings: 10 μM MPP+, read-out: EC50 (IC50) for protection from MPP+ induced cell death
Description: (§1) In vivo MPTP is metabolized to its active form, the 1-methyl-4-phenylpyridinium ion (MPP^+), and MPP^+ has proven very useful in a variety of cell culture models of PD. To determine the protective effect of PIP-1 on cells subjected to MPP^+ insult, PC-12 (differentiated as above) and SK-N-SH (differentiated with retinoic acid for 12 days) cells are treated with 10 μM MPP^+ and a range of PIP-1 concentrations, and cell death is assessed by propidium iodide staining and flow cytometry. […] As shown in FIGS. 20A and 20B, PIP-1 also protects differentiated PC-12 and SK-N-SH cells from rotenone-induced toxicity as well.
(§2) Cell culture conditions: HL-60 and SK-N-SH cells are grown in RPMI 1640 media supplemented with 10% FBS and PC-12 cells are grown in RPMI 1640 media supplemented with 10% HS and 5% FBS. All cell lines are incubated at 37° C. in a 5% CO2, 95% air atmosphere. HL-60 cells are split every two to three days as needed and SK-N-SH cells are split when they reach approximately 90% confluency at a 1:6 ratio. […]
(§3) Protection of Rotenone and MPP^+ induced toxicity in PC-12 and SK-N-SH cells: SK-N-SH and PC-12 cells are neuronally differentiated as described above. […] The cells are then washed in PBS and the viability is determined by adding propidium iodide to 1 μg/mL and measuring the fluorescent intensity of each cell by flow cytometry.

[2] = system: neuronally differentiated SK-N-SH cells; assay: Protection from MPP+ induced toxicity in neuronally differentiated SK-N-SH cells; type: cell-based; settings: 10 μM MPP+, 72 h, read-out: EC50 (IC50) for protection from MPP+ induced cell death
Description: as §1, §2, §3

`CN(C)c1cnn(-c2ccccc2)c(=O)c1N` [PIP-1, 4-Amino-5-dimethylamino-2-phenyl-2H-pyridazin-3-one] gave an EC50 ([1]; 72 h) of 1.81 µM, an EC50 ([1]; Rattus norvegicus, PC-12, 72 h) of about 1.8 µM and an EC50 [2] of 1.64 µM. It also gave an EC50 ([2]; Homo sapiens, SK-N-SH) of about 1.8 µM.
